PubChem BioAssay (NCI)
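Exposure lasted 48 hours, with cells grown in 96-well plates and compounds tested at five concentrations. At the GI50, growth is halved. The concentration for full growth arrest is given as TGI.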

How the values were obtained:
Assay in all cases: DTP human tumour cell line panel, 48 h
786-0 renal = tested on: 786-0 renal
A498 renal = tested on: A498 renal
A549 NSCLC = tested on: A549 NSCLC
ACHN renal = tested on: ACHN renal
CAKI-1 renal = tested on: CAKI-1 renal
CCRF-CEM leukemia = tested on: CCRF-CEM leukemia
COLO 205 colon = tested on: COLO 205 colon
DU-145 prostate = tested on: DU-145 prostate
EKVX NSCLC = tested on: EKVX NSCLC
HCC-2998 colon = tested on: HCC-2998 colon
HCT-116 colon = tested on: HCT-116 colon
HCT-15 colon = tested on: HCT-15 colon
HL-60(TB) leukemia = tested on: HL-60(TB) leukemia
HOP-62 NSCLC = tested on: HOP-62 NSCLC
HOP-92 NSCLC = tested on: HOP-92 NSCLC
HS 578T breast = tested on: HS 578T breast
HT29 colon = tested on: HT29 colon
IGROV1 ovarian = tested on: IGROV1 ovarian
KM12 colon = tested on: KM12 colon
LOX IMVI melanoma = tested on: LOX IMVI melanoma
M14 melanoma = tested on: M14 melanoma
MALME-3M melanoma = tested on: MALME-3M melanoma
MCF7 breast = tested on: MCF7 breast
MDA-MB-231 breast = tested on: MDA-MB-231 breast
MDA-MB-435 = tested on: MDA-MB-435
MDA-N = tested on: MDA-N
MOLT-4 leukemia = tested on: MOLT-4 leukemia
NCI-H23 lung = tested on: NCI-H23 lung
NCI-H460 lung = tested on: NCI-H460 lung
NCI-H522 lung = tested on: NCI-H522 lung
NCI/ADR-RES ovarian = tested on: NCI/ADR-RES ovarian
OVCAR-3 ovarian = tested on: OVCAR-3 ovarian
OVCAR-4 ovarian = tested on: OVCAR-4 ovarian
OVCAR-5 ovarian = tested on: OVCAR-5 ovarian
OVCAR-8 ovarian = tested on: OVCAR-8 ovarian
PC-3 prostate = tested on: PC-3 prostate
RPMI-8226 leukemia = tested on: RPMI-8226 leukemia
RXF 393 renal = tested on: RXF 393 renal
SF-268 CNS = tested on: SF-268 CNS
SF-295 CNS = tested on: SF-295 CNS
SF-539 CNS = tested on: SF-539 CNS
SK-MEL-2 melanoma = tested on: SK-MEL-2 melanoma
SK-MEL-28 melanoma = tested on: SK-MEL-28 melanoma
SK-MEL-5 melanoma = tested on: SK-MEL-5 melanoma
SK-OV-3 ovarian = tested on: SK-OV-3 ovarian
SN12C renal = tested on: SN12C renal
SNB-19 CNS = tested on: SNB-19 CNS
SNB-75 CNS = tested on: SNB-75 CNS
SR leukemia = tested on: SR leukemia
SW-620 colon = tested on: SW-620 colon
T-47D breast = tested on: T-47D breast
TK-10 renal = tested on: TK-10 renal
U251 CNS = tested on: U251 CNS
UACC-257 melanoma = tested on: UACC-257 melanoma
UACC-62 melanoma = tested on: UACC-62 melanoma
UO-31 renal = tested on: UO-31 renal
K-562 leukemia = tested on: K-562 leukemia
NCI-H226 lung = tested on: NCI-H226 lung

Question: Which TGI (786-0 renal) does the source give for `C[C@]1(O)CC[C@H]2[C@@H]3CCc4cc(O)ccc4[C@H]3CC[C@@]21C` here?
Answer: > 100 µM

Question: What about the TGI (A498 renal) of the same molecule?
Answer: 9.61 µM

Question: And the TGI (A549 NSCLC)?
Answer: 77.6 µM

Question: And the TGI (ACHN renal)?
Answer: > 100 µM

Question: What about the TGI (CAKI-1 renal) of the same molecule?
Answer: > 100 µM

Question: And the TGI (CCRF-CEM leukemia)?
Answer: 80.1 µM

Question: What about the TGI (COLO 205 colon) of the same molecule?
Answer: > 100 µM

Question: And the GI50 (DU-145 prostate)?
Answer: 1.98 µM

Question: What about the TGI (DU-145 prostate) of the same molecule?
Answer: 8.25 µM

Question: What about the TGI (EKVX NSCLC) of the same molecule?
Answer: 9.08 µM

Question: And the TGI (HCC-2998 colon)?
Answer: 0.937 µM

Question: And the GI50 (HCT-116 colon)?
Answer: 0.703 µM

Question: What about the TGI (HCT-116 colon) of the same molecule?
Answer: > 100 µM

Question: And the TGI (HCT-15 colon)?
Answer: > 100 µM

Question: What about the TGI (HL-60(TB) leukemia) of the same molecule?
Answer: 3.49 µM

Question: What about the GI50 (HOP-62 NSCLC) of the same molecule?
Answer: 18.4 µM

Question: What about the TGI (HOP-62 NSCLC) of the same molecule?
Answer: > 100 µM

Question: And the TGI (HOP-92 NSCLC)?
Answer: 67.8 µM

Question: And the TGI (HS 578T breast)?
Answer: 4.98 µM

Question: What about the TGI (HT29 colon) of the same molecule?
Answer: > 100 µM

Question: And the TGI (IGROV1 ovarian)?
Answer: 27.8 µM

Question: What about the TGI (KM12 colon) of the same molecule?
Answer: 12.1 µM

Question: And the TGI (LOX IMVI melanoma)?
Answer: 72.5 µM

Question: What about the TGI (M14 melanoma) of the same molecule?
Answer: 62.4 µM

Question: And the TGI (MALME-3M melanoma)?
Answer: 0.948 µM

Question: What about the TGI (MCF7 breast) of the same molecule?
Answer: > 100 µM

Question: And the TGI (MDA-MB-231 breast)?
Answer: 88 µM

Question: And the TGI (MDA-MB-435)?
Answer: 0.761 µM

Question: And the TGI (MDA-N)?
Answer: 0.651 µM

Question: What about the TGI (MOLT-4 leukemia) of the same molecule?
Answer: > 100 µM

Question: What about the TGI (NCI-H23 lung) of the same molecule?
Answer: > 100 µM

Question: And the TGI (NCI-H460 lung)?
Answer: > 100 µM

Question: What about the TGI (NCI-H522 lung) of the same molecule?
Answer: 5.08 µM

Question: And the TGI (NCI/ADR-RES ovarian)?
Answer: > 100 µM

Question: And the GI50 (OVCAR-3 ovarian)?
Answer: 0.663 µM

Question: And the TGI (OVCAR-3 ovarian)?
Answer: 42.9 µM

Question: What about the TGI (OVCAR-4 ovarian) of the same molecule?
Answer: > 100 µM

Question: And the TGI (OVCAR-5 ovarian)?
Answer: > 100 µM

Question: And the TGI (OVCAR-8 ovarian)?
Answer: 64.8 µM

Question: What about the TGI (PC-3 prostate) of the same molecule?
Answer: > 100 µM

Question: What about the TGI (RPMI-8226 leukemia) of the same molecule?
Answer: 4.81 µM

Question: And the TGI (RXF 393 renal)?
Answer: 4.05 µM

Question: What about the TGI (SF-268 CNS) of the same molecule?
Answer: 68.3 µM

Question: And the TGI (SF-295 CNS)?
Answer: 13 µM

Question: And the TGI (SF-539 CNS)?
Answer: 2.27 µM

Question: What about the TGI (SK-MEL-2 melanoma) of the same molecule?
Answer: > 100 µM

Question: What about the TGI (SK-MEL-28 melanoma) of the same molecule?
Answer: > 100 µM

Question: What about the TGI (SK-MEL-5 melanoma) of the same molecule?
Answer: 11.7 µM

Question: And the TGI (SK-OV-3 ovarian)?
Answer: > 100 µM

Question: And the GI50 (SN12C renal)?
Answer: 10.2 µM

Question: What about the TGI (SN12C renal) of the same molecule?
Answer: > 100 µM

Question: What about the TGI (SNB-19 CNS) of the same molecule?
Answer: > 100 µM

Question: What about the TGI (SNB-75 CNS) of the same molecule?
Answer: > 100 µM

Question: And the TGI (SR leukemia)?
Answer: 0.668 µM

Question: And the TGI (SW-620 colon)?
Answer: > 100 µM

Question: What about the TGI (T-47D breast) of the same molecule?
Answer: > 100 µM

Question: What about the TGI (TK-10 renal) of the same molecule?
Answer: 7.51 µM

Question: What about the TGI (U251 CNS) of the same molecule?
Answer: > 100 µM

Question: What about the TGI (UACC-257 melanoma) of the same molecule?
Answer: 77.1 µM

Question: And the GI50 (UACC-62 melanoma)?
Answer: 1.48 µM

Question: What about the TGI (UACC-62 melanoma) of the same molecule?
Answer: 37.5 µM

Question: And the TGI (UO-31 renal)?
Answer: 61.2 µM

Question: What does the source list for `O=C(C=P(c1ccccc1)(c1ccccc1)c1ccccc1)c1ccc(-c2cccc([N+](=O)[O-])c2)cc1`?
Answer: TGI (786-0 renal): 20.8 µM; TGI (A498 renal): 9.11 µM; TGI (A549 NSCLC): 12.7 µM; TGI (ACHN renal): 7.87 µM; TGI (CAKI-1 renal): 9.38 µM; TGI (CCRF-CEM leukemia): 7.25 µM; TGI (COLO 205 colon): 3.31 µM; TGI (DU-145 prostate): 35.1 µM; TGI (EKVX NSCLC): 11.7 µM; TGI (HCC-2998 colon): 4.75 µM; TGI (HCT-116 colon): 6.24 µM; TGI (HCT-15 colon): 12.7 µM; TGI (HL-60(TB) leukemia): 5.08 µM; TGI (HOP-62 NSCLC): 27.6 µM; TGI (HOP-92 NSCLC): 6.92 µM; TGI (HS 578T breast): 22.4 µM; TGI (HT29 colon): 3.13 µM; TGI (K-562 leukemia): 7.98 µM; TGI (KM12 colon): 20 µM; TGI (LOX IMVI melanoma): 4.15 µM; TGI (M14 melanoma): 4.64 µM; TGI (MALME-3M melanoma): 9.31 µM; TGI (MCF7 breast): 10.6 µM; TGI (MDA-MB-231 breast): 8 µM; TGI (MDA-MB-435): 5.4 µM; TGI (MDA-N): 9.09 µM; TGI (MOLT-4 leukemia): 5.55 µM; TGI (NCI-H226 lung): 19.9 µM; TGI (NCI-H23 lung): 21.2 µM; TGI (NCI-H460 lung): 4.27 µM; TGI (NCI/ADR-RES ovarian): 25.1 µM; TGI (OVCAR-3 ovarian): 9.69 µM; TGI (OVCAR-4 ovarian): 9.52 µM; TGI (OVCAR-5 ovarian): 14.9 µM; TGI (PC-3 prostate): 18.6 µM; TGI (RPMI-8226 leukemia): 3.98 µM; TGI (RXF 393 renal): 9.34 µM; TGI (SF-268 CNS): > 100 µM; TGI (SF-295 CNS): > 100 µM; TGI (SF-539 CNS): 15.3 µM; TGI (SK-MEL-2 melanoma): 3.78 µM; TGI (SK-MEL-28 melanoma): 18.2 µM; TGI (SK-MEL-5 melanoma): 5.91 µM; TGI (SK-OV-3 ovarian): 18.6 µM; TGI (SN12C renal): 12 µM; TGI (SNB-19 CNS): > 100 µM; TGI (SNB-75 CNS): 6.86 µM; TGI (SR leukemia): 8.09 µM; TGI (SW-620 colon): 14.5 µM; TGI (T-47D breast): 27.1 µM; TGI (TK-10 renal): 55.9 µM; TGI (U251 CNS): 13.2 µM; TGI (UACC-257 melanoma): 15.8 µM; TGI (UACC-62 melanoma): 15.9 µM; TGI (UO-31 renal): 4.8 µM
